Test results published in the NIST ThermoML archive (doi:10.1021/je0340912).
“And” between values parts separate entries of the source, which are not always exact repeats. Equal values may be shown once. ± gives the expanded uncertainty stated by the source.

Legend:
[1] = Liquid; for mass density: 101.33 kPa
[2] = excess molar enthalpy (molar enthalpy of mixing); xn = mol fraction of the nth substance listed; conditions: 101.32 kPa, Liquid, Flow calorimetry

Compound: CC(C)(C)O [2-methylpropan-2-ol]
- mass density ([1]; 303.15 K): 775.5 ± 0.6 kg/m3
- vapor or sublimation pressure ([1]; 355.13 K): 100.6 ± 0.2 kPa

Compound: C=C(C)CC(C)(C)C [2,4,4-trimethyl-1-pentene] + CCC(C)O
- excess molar enthalpy ([2]; 298.15 K, x2 = 0.0544): 0.13 ± 0.00153 kcal/mol
- excess molar enthalpy ([2]; 298.15 K, x2 = 0.0832): 0.159 ± 0.00184 kcal/mol
- excess molar enthalpy ([2]; 298.15 K, x2 = 0.1597): 0.202 ± 0.00225 kcal/mol
- excess molar enthalpy ([2]; 298.15 K, x2 = 0.2314): 0.227 ± 0.00263 kcal/mol
- excess molar enthalpy ([2]; 298.15 K, x2 = 0.2987): 0.243 ± 0.00263 kcal/mol
- excess molar enthalpy ([2]; 298.15 K, x2 = 0.3621): 0.251 ± 0.00263 kcal/mol
- excess molar enthalpy ([2]; 298.15 K, x2 = 0.4217): 0.252 ± 0.00287 kcal/mol
- excess molar enthalpy ([2]; 298.15 K, x2 = 0.4781): 0.249 ± 0.00263 kcal/mol
- excess molar enthalpy ([2]; 298.15 K, x2 = 0.5313): 0.241 ± 0.00263 kcal/mol
- excess molar enthalpy ([2]; 298.15 K, x2 = 0.5818): 0.229 ± 0.00263 kcal/mol
- excess molar enthalpy ([2]; 298.15 K, x2 = 0.6296): 0.213 ± 0.00237 kcal/mol
- excess molar enthalpy ([2]; 298.15 K, x2 = 0.675): 0.196 ± 0.0022 kcal/mol
- excess molar enthalpy ([2]; 298.15 K, x2 = 0.7182): 0.177 ± 0.00201 kcal/mol
- excess molar enthalpy ([2]; 298.15 K, x2 = 0.7593): 0.156 ± 0.00179 kcal/mol
- excess molar enthalpy ([2]; 298.15 K, x2 = 0.7986): 0.134 ± 0.00158 kcal/mol
- excess molar enthalpy ([2]; 298.15 K, x2 = 0.836): 0.112 ± 0.00136 kcal/mol
- excess molar enthalpy ([2]; 298.15 K, x2 = 0.8717): 0.0891 ± 0.00112 kcal/mol
- excess molar enthalpy ([2]; 298.15 K, x2 = 0.9059): 0.0665 ± 0.000908 kcal/mol
- excess molar enthalpy ([2]; 298.15 K, x2 = 0.9386): 0.0437 ± 0.000669 kcal/mol
- excess molar enthalpy ([2]; 298.15 K, x2 = 0.9699): 0.0219 ± 0.000454 kcal/mol

Compound: C=C(C)CC(C)(C)C [2,4,4-trimethyl-1-pentene]
- mass density ([1]; 298.15 K): 711.3 ± 1 kg/m3
- vapor or sublimation pressure ([1]; 374.34 K): 101.4 ± 0.3 kPa and 101.3 ± 0.3 kPa

Compound: CCC(C)O (configuration not stated) [butan-2-ol]
- mass density ([1]; 298.15 K): 802.4 ± 0.6 kg/m3
- vapor or sublimation pressure ([1]; 372.14 K): 100.5 ± 0.2 kPa

Compound: C=C(C)CC(C)(C)C [2,4,4-trimethyl-1-pentene] + CC(C)(C)O
- excess molar enthalpy ([2]; 300.15 K, x2 = 0.0529): 0.125 ± 0.00148 kcal/mol
- excess molar enthalpy ([2]; 300.15 K, x2 = 0.0811): 0.151 ± 0.00174 kcal/mol
- excess molar enthalpy ([2]; 300.15 K, x2 = 0.1559): 0.188 ± 0.00213 kcal/mol
- excess molar enthalpy ([2]; 300.15 K, x2 = 0.2264): 0.208 ± 0.00232 kcal/mol
- excess molar enthalpy ([2]; 300.15 K, x2 = 0.2928): 0.218 ± 0.00239 kcal/mol
- excess molar enthalpy ([2]; 300.15 K, x2 = 0.3555): 0.225 ± 0.00239 kcal/mol
- excess molar enthalpy ([2]; 300.15 K, x2 = 0.4148): 0.227 ± 0.00263 kcal/mol
- excess molar enthalpy ([2]; 300.15 K, x2 = 0.471): 0.228 ± 0.00263 kcal/mol
- excess molar enthalpy ([2]; 300.15 K, x2 = 0.5241): 0.226 ± 0.00263 kcal/mol
- excess molar enthalpy ([2]; 300.15 K, x2 = 0.5242): 0.225 ± 0.00239 kcal/mol
- excess molar enthalpy ([2]; 300.15 K, x2 = 0.5747): 0.222 kcal/mol
- excess molar enthalpy ([2]; 300.15 K, x2 = 0.6229): 0.216 ± 0.00239 kcal/mol
- excess molar enthalpy ([2]; 300.15 K, x2 = 0.6687): 0.207 ± 0.00232 kcal/mol
- excess molar enthalpy ([2]; 300.15 K, x2 = 0.7124): 0.195 ± 0.0022 kcal/mol
- excess molar enthalpy ([2]; 300.15 K, x2 = 0.7541): 0.18 ± 0.00203 kcal/mol
- excess molar enthalpy ([2]; 300.15 K, x2 = 0.7939): 0.161 ± 0.00186 kcal/mol
- excess molar enthalpy ([2]; 300.15 K, x2 = 0.832): 0.141 ± 0.00165 kcal/mol
- excess molar enthalpy ([2]; 300.15 K, x2 = 0.8685): 0.118 ± 0.00141 kcal/mol
- excess molar enthalpy ([2]; 300.15 K, x2 = 0.9034): 0.0915 ± 0.00115 kcal/mol
- excess molar enthalpy ([2]; 300.15 K, x2 = 0.9369): 0.0626 ± 0.00086 kcal/mol
- excess molar enthalpy ([2]; 300.15 K, x2 = 0.9691): 0.0326 ± 0.000574 kcal/mol
